The test can be described thus: Inhibition of NLRP3 inflammasome activation in human THP-1 cells assessed as reduction in LPS induced IL-1beta level preincubated with LPS for 3 hrs followed by compound addition and measured after 2 hrs in presence of nigericin by HTRF analysis. Format: cell-based.
One may read the IC50 as the concentration that inhibits the measured activity by half. For the compound `CCc1cc(C)cc(O)c1-c1ccc(N2CC[C@@H]3CCN(C)C[C@@H]32)nn1`, the IC50 is under 0.3 nM.

For the compound `CCN1CC[C@H]2CCN(c3ccc(-c4ccc(C(F)(F)F)cc4O)nn3)[C@H]2C1`, the IC50 was under 0.3 nM. Consider `Cc1cc(N2CCO[C@H]3CCN(C)C[C@H]32)nnc1-c1ccc(C(F)(F)F)cc1O`, for which the IC50 is under 0.3 nM. On to `CCN1CC[C@@H]2CCN(c3cc(C)c(-c4ccc(C)cc4O)nn3)[C@@H]2C1`, for which the IC50 was under 0.3 nM. With `CN1CC[C@H]2CCN(c3cc(C(F)F)c(-c4ccc(Cl)cc4O)nn3)[C@H]2C1`, the IC50 is under 0.3 nM. With `CCN1CC[C@H]2CCN(c3cc(C)c(-c4ccc(C)cc4O)nn3)[C@H]2C1` the figure was under 0.3 nM.

These data come from ChEMBL document CHEMBL6074701, “Pyridazine Compounds as NLRP3 Inhibitors for Treating Parkinson's Disease or Frontotemporal Dementia” (ACS Med Chem Lett, 2024).
